Measured values published in PubChem BioAssay AID624270 (Broad Institute, 2012).
Calls of active or inactive are those of the source. How the calls were made is not given here.

tested on: V. cholerae BH1578 lux luminescence, 6 h; assay: Cholera quorum agonist confirmation, luxS deficient cqsA deficient strain BH1578, luminescence (AID 624270); conditions: not given

Row | SMILES | AC50
1 | Cc1c(Cl)cccc1-n1cnc(=O)c2ccccc21 | > 35000 nM (inactive)
2 | CCCn1nnnc1NCc1ccc(N(CC)CC)cc1 | 54.8 nM
3 | COc1ccccc1NC(=O)COC(=O)c1cc2c(s1)CCC2 | 66.2 nM
4 | O=C(Nc1nnc(-c2ccc3c(c2)OCCO3)o1)C1CCCCC1 | 1380 nM
5 | CCn1nnnc1NCc1ccc(N2CCCC2)cc1 | 4.14 nM
6 | COc1ccccc1NC(=O)COC(=O)c1oc2ccccc2c1C | 1570 nM
7 | CCOc1ccc(Nc2ccc3nonc3c2[N+](=O)[O-])cc1 | 183 nM
8 | CCC(C)NC(=O)Cc1ccc(-c2ccccc2)cc1 (stereo not given) | 1240 nM
9 | CCCn1nnnc1NCc1ccc(N2CCCC2)cc1 | 13.8 nM
10 | COc1ccccc1NC(=O)COC(=O)c1ccc(C)cc1 | 397 nM
11 | COc1ccc(Cl)cc1NC(=O)COC(=O)c1ccc(C)o1 | 63.8 nM
12 | Cc1ccc2cc3c(NC(=O)c4ccco4)nn(C)c3nc2c1 | 2870 nM
13 | O=C(Cc1ccc(-c2ccccc2)cc1)NC1CCCC1 | 104 nM
14 | CCCn1nnnc1NCc1ccc(C(C)C)cc1 | 45.2 nM
15 | Cc1ccc(OCCNC(=O)c2cccc(C)c2)cc1 | 96 nM
16 | O=c1ncn(-c2cccc(Cl)c2)c2ccccc12 | 1.29 nM

tested on: not listed separately; assay: as above; conditions: V. cholerae BH1578 lux luminescence, 6 h; at 35 µM (top of the series)

Row | SMILES | activation (light induction)
17 | CCCn1nnnc1NCc1ccccc1Cl | 1.22% (inactive)
18 | Cc1ccc(CC(=O)NC2CCCC2)cc1 | 15.8% (inactive)
19 | CCn1c(CC(=O)Nc2cccc(Cl)c2Cl)nnc1SCCOc1ccc(OC)cc1 | 1.79% (inactive)
20 | CCn1nnc(NCc2ccc(C)cc2)n1 | 0.27% (inactive)
